In ChEMBL document CHEMBL6127049, “Discovery of the selective and nanomolar inhibitor of DPP-4 more potent than sitagliptin by structure-guided rational design” (Eur J Med Chem, 2024):
Active and inactive are the calls of the source. The calls are words filed in the database; no cut-off is given here.

Columns and labels:
Dipeptidyl peptidase 4 = Dipeptidyl peptidase 4 (Homo sapiens, UniProt P27487); assay: Inhibition of DPP4 (unknown origin) assessed as hydrolysis rate using Gly-pro-p-nitroanilide as substrate measured after 20 mins incubation by fluorometric assay
Rattus norvegicus [1] = organism: Rattus norvegicus; assay: Anti-diabetic activity in STZ-induced type 2 diabetes male Wistar albino rat model assessed as fasting blood glucose level measured on day 1; assay type: functional
Rattus norvegicus [2] = organism: Rattus norvegicus; assay: Anti-diabetic activity in STZ-induced type 2 diabetes male Wistar albino rat model assessed as fasting blood glucose level measured on day 28; assay type: functional
Rattus norvegicus [3] = assay: Reduction of serum glutamate oxaloacetate transaminase (SGOT) level in STZ-induced type 2 diabetes male Wistar albino rat model at 20 mg/kg, po measured after 4 weeks by hepatic function test; assay type: functional, organism-based
[4] = Acute toxicity in Balb/C mouse assessed as morphological changes in convulsions at 1250 to 2000 mg/kg, po; assay type: organism-based; details: in vivo, dose 1250-2000 mg/kg
Rattus norvegicus [5] = assay: Reduction of insulin level in STZ-induced type 2 diabetes male Wistar albino rat model at 20 mg/kg, po measured after 4 weeks by hepatic function test; assay type: functional, organism-based
Rattus norvegicus [6] = assay: Anti-diabetic activity in normal Wistar rat model assessed as blood glucose level at 10 mg/kg, po followed by treated administered 3 mg/kg orally measured after 120 mins by Oral glucose tolerance test (reference value: 126.5 + /- 3.90 mg/dL); assay type: functional; details: 2 h
Rattus norvegicus [7] = assay: Antihyperlipidemic effect in STZ-induced type 2 diabetes male Wistar albino rat model assessed as total cholesterol level at 20 mg/kg, po measured after 4 weeks (reference value: 227.04 +/- 4.10 mg/dL); assay type: functional
Rattus norvegicus [8] = assay: Anti-diabetic activity in normal Wistar rat model assessed as blood glucose level at 20 mg/kg, po followed by treated administered 3 mg/kg orally measured immediately after administration by Oral glucose tolerance test (reference value: 105.12 mg/dL); assay type: functional
Rattus norvegicus [9] = assay: Antihyperlipidemic effect in STZ-induced type 2 diabetes male Wistar albino rat model assessed as HDL level at 10 mg/kg, po measured after 4 weeks (reference value: 25.54 +/- 2.62 mg/dL); assay type: functional
Rattus norvegicus [10] = assay: Reduction of alkaline phosphatase (ALP) level in STZ-induced type 2 diabetes male Wistar albino rat model at 10 mg/kg, po measured after 4 weeks by hepatic function test; assay type: functional, organism-based
Rattus norvegicus [11] = assay: Antihyperlipidemic effect in STZ-induced type 2 diabetes male Wistar albino rat model assessed as triglyceride level at 10 mg/kg, po measured after 4 weeks (reference value: 190.23 +/- 4.37 mg/dL); assay type: functional
Rattus norvegicus [12] = assay: Antihyperlipidemic effect in STZ-induced type 2 diabetes male Wistar albino rat model assessed as LDL level at 20 mg/kg, po measured after 4 weeks (reference value: 184.65 +/- 4.57 mg/dL); assay type: functional
[13] = Acute toxicity in Balb/C mouse assessed as morphological changes in salvation at 1250 to 2000 mg/kg, po; assay type: organism-based; details: in vivo, dose 1250-2000 mg/kg
Rattus norvegicus [14] = assay: Anti-diabetic activity in normal Wistar rat model assessed as blood glucose level at 10 mg/kg, po followed by treated administered 3 mg/kg orally measured after 60 mins by Oral glucose tolerance test (reference value: 153.74 + /- 3.94 mg/dL); assay type: functional; details: 1 h
Rattus norvegicus [15] = assay: Antihyperlipidemic effect in STZ-induced type 2 diabetes male Wistar albino rat model assessed as HDL level at 20 mg/kg, po measured after 4 weeks (reference value: 25.54 +/- 2.62 mg/dL); assay type: functional
Rattus norvegicus [16] = assay: Reduction of serum glutamate pyruvate transaminase (SGPT) level in STZ-induced type 2 diabetes male Wistar albino rat model at 20 mg/kg, po measured after 4 weeks by hepatic function test; assay type: functional, organism-based
Dipeptidyl peptidase 8 = Dipeptidyl peptidase 8 (Homo sapiens, UniProt Q6V1X1); assay: Inhibition of DPP8 (unknown origin) assessed as hydrolysis rate using Gly-pro-p-nitroanilide as substrate measured after 20 mins incubation by […] assay
[17] = Acute toxicity in Balb/C mouse assessed as morphological changes in eyes at 1250 to 2000 mg/kg, po; assay type: organism-based; details: in vivo, dose 1250-2000 mg/kg
Rattus norvegicus [18] = assay: Anti-diabetic activity in normal Wistar rat model assessed as blood glucose level at 10 mg/kg, po followed by treated administered 3 mg/kg orally measured after 30 mins by Oral glucose tolerance test (reference value: […] 176.14 + /- 4.04 mg/dL); assay type: functional; details: 0.5 h
[19] = Acute toxicity in Balb/C mouse assessed as morphological changes in tremors at 1250 to 2000 mg/kg, po; assay type: organism-based; details: in vivo, dose 1250-2000 mg/kg
Rattus norvegicus [20] = assay: Anti-diabetic activity in normal Wistar rat model assessed as blood glucose level at 10 mg/kg, po followed by treated administered 3 mg/kg orally measured immediately after administration by Oral glucose tolerance test (reference value: 105.12 mg/dL); assay type: functional
Rattus norvegicus [21] = assay: Reduction of serum glutamate pyruvate transaminase (SGPT) level in STZ-induced type 2 diabetes male Wistar albino rat model at 10 mg/kg, po measured after 4 weeks by hepatic function test; assay type: functional, organism-based
Rattus norvegicus [22] = assay: Anti-diabetic activity in normal Wistar rat model assessed as blood glucose level at 20 mg/kg, po followed by treated administered 3 mg/kg orally measured after 60 mins by Oral glucose tolerance test (reference value: 153.74 + /- 3.94 mg/dL); assay type: functional; details: 1 h
Rattus norvegicus [23] = assay: Reduction of alkaline phosphatase (ALP) level in STZ-induced type 2 diabetes male Wistar albino rat model at 20 mg/kg, po measured after 4 weeks by hepatic function test; assay type: functional, organism-based
Rattus norvegicus [24] = assay: Anti-diabetic activity in normal Wistar rat model assessed as blood glucose level at 20 mg/kg, po followed by treated administered 3 mg/kg orally measured after 90 mins by Oral glucose tolerance test (reference value: 134.11 + /- 4.64 mg/dL); assay type: functional; details: 1.5 h
Rattus norvegicus [25] = assay: Anti-diabetic activity in normal Wistar rat model assessed as blood glucose level at 10 mg/kg, po followed by treated administered 3 mg/kg orally measured after 90 mins by Oral glucose tolerance test (reference value: 134.11 + /- 4.64 mg/dL); assay type: functional; details: 1.5 h
[26] = Acute toxicity in Balb/C mouse assessed as morphological changes in skin at 1250 to 2000 mg/kg, po; assay type: organism-based; details: in vivo, dose 1250-2000 mg/kg
Rattus norvegicus [27] = assay: Antihyperlipidemic effect in STZ-induced type 2 diabetes male Wistar albino rat model assessed as LDL level at 10 mg/kg, po measured after 4 weeks (reference value: 184.65 +/- 4.57 mg/dL); assay type: functional
Rattus norvegicus [28] = assay: Reduction of serum glutamate oxaloacetate transaminase (SGOT) level in STZ-induced type 2 diabetes male Wistar albino rat model at 10 mg/kg, po measured after 4 weeks by hepatic function test; assay type: functional, organism-based
Rattus norvegicus [29] = assay: Antihyperlipidemic effect in STZ-induced type 2 diabetes male Wistar albino rat model assessed as triglyceride level at 20 mg/kg, po measured after 4 weeks (reference value: 190.23 +/- 4.37 mg/dL); assay type: functional
Rattus norvegicus [30] = assay: Antihyperlipidemic effect in STZ-induced type 2 diabetes male Wistar albino rat model assessed as total cholesterol level at 10 mg/kg, po measured after 4 weeks (reference value: 227.04 +/- 4.10 mg/dL); assay type: functional
Rattus norvegicus [31] = assay: Anti-diabetic activity in normal Wistar rat model assessed as blood glucose level at 20 mg/kg, po followed by treated administered 3 mg/kg orally measured after 30 mins by Oral glucose tolerance test (reference value: 176.14 + /- 4.04 mg/dL); assay type: functional; details: 0.5 h
[32] = Acute toxicity in Balb/C mouse assessed as morphological changes in unusual behavior at 1250 to 2000 mg/kg, po; assay type: organism-based; details: in vivo, dose 1250-2000 mg/kg
[33] = Acute toxicity in Balb/C mouse assessed as morphological changes in fur at 1250 to 2000 mg/kg, po; assay type: organism-based; details: in vivo, dose 1250-2000 mg/kg
Dipeptidyl peptidase 9 = Dipeptidyl peptidase 9 (Homo sapiens, UniProt Q86TI2); assay: Inhibition of DPP9 (unknown origin) assessed as hydrolysis rate using Gly-pro-p-nitroanilide as substrate measured after 20 mins incubation by […] assay
[34] = Acute toxicity in Balb/C mouse assessed as morphological changes in diarrhea at 1250 to 2000 mg/kg, po; assay type: organism-based; details: in vivo, dose 1250-2000 mg/kg
[35] = Acute toxicity in Balb/C mouse assessed as changes in general appearance at 1250 to 2000 mg/kg, po; assay type: organism-based; details: in vivo, dose 1250-2000 mg/kg
Rattus norvegicus [36] = assay: Anti-diabetic activity in normal Wistar rat model assessed as blood glucose level at 20 mg/kg, po followed by treated administered 3 mg/kg orally measured after 120 mins by Oral glucose tolerance test (reference value: 126.5 + /- 3.90 mg/dL); assay type: functional; details: 2 h
[37] = Acute toxicity in Balb/C mouse assessed as morphological changes in nose at 1250 to 2000 mg/kg, po; assay type: organism-based; details: in vivo, dose 1250-2000 mg/kg

Chain of Dipeptidyl peptidase 4 (P27487 whole entry): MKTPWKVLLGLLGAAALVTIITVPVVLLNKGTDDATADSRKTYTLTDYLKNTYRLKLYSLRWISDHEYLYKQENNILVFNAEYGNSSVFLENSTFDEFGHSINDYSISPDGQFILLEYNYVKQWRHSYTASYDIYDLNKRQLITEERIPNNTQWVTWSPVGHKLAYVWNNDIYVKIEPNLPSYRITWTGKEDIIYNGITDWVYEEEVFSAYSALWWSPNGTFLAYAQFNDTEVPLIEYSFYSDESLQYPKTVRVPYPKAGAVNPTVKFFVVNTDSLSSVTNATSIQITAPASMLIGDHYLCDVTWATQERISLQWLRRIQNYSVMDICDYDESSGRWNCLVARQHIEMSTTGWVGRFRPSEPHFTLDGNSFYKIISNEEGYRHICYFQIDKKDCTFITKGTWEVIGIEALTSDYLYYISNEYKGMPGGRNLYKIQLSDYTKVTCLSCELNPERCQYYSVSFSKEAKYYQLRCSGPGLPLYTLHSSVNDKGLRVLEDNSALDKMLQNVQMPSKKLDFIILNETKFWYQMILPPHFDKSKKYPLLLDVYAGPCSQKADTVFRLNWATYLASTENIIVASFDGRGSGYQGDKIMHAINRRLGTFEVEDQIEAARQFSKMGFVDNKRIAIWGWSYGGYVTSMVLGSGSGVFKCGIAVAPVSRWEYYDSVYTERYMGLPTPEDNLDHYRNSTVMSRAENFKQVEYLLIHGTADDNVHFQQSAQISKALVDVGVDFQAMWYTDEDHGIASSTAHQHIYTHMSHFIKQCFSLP
Chain of Dipeptidyl peptidase 9 (Q86TI2 whole entry): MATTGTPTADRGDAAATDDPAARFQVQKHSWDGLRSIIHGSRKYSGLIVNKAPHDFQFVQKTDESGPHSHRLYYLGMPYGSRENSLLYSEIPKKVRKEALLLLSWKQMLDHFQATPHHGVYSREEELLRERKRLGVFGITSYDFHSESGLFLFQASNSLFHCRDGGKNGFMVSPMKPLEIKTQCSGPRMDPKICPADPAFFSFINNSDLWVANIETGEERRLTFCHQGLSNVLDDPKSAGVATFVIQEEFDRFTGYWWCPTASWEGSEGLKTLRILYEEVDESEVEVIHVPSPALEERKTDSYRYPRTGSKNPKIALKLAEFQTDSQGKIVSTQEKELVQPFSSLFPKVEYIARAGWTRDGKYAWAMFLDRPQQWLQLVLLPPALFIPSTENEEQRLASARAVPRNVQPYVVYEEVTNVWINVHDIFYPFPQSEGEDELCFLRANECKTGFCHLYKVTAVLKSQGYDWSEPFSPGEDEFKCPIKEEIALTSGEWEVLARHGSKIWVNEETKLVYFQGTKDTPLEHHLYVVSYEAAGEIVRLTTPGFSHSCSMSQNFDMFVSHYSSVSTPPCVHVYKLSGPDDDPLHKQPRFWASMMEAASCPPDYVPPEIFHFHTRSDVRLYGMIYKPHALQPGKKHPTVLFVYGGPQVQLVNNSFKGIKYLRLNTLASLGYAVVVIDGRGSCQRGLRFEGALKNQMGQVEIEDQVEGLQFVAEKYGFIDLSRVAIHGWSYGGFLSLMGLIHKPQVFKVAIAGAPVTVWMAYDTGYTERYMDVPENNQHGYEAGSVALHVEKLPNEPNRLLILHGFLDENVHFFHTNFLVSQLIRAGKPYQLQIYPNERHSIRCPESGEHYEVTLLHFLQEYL
Chain of Dipeptidyl peptidase 8 (Q6V1X1 whole entry): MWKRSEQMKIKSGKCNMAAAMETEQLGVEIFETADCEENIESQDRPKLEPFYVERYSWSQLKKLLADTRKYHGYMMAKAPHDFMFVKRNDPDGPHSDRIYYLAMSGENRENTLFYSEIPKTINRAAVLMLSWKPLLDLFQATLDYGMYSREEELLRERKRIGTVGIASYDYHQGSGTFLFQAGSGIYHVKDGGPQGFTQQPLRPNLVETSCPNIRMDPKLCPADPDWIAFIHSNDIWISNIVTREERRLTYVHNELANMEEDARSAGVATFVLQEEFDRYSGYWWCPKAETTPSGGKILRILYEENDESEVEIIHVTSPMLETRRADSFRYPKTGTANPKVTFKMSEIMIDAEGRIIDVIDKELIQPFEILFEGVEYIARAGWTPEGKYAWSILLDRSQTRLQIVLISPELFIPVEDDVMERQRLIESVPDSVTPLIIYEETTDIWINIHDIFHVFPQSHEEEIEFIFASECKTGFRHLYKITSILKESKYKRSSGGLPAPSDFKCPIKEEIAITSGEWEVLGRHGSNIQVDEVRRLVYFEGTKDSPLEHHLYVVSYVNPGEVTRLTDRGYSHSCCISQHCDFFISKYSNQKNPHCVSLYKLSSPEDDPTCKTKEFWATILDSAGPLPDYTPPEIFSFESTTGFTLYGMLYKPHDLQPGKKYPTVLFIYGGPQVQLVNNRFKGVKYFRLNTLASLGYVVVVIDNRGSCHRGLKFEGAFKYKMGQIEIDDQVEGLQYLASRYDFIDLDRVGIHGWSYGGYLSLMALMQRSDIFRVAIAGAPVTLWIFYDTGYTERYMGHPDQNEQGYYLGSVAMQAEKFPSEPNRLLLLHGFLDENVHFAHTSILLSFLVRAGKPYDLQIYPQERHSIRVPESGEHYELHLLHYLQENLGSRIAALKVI

CC1=C(CC(=O)N2CCCC2C#N)C(c2ccc(F)c(F)c2)NC(=O)N1 (stereo not drawn)
IC50 (Dipeptidyl peptidase 4): 266 nM

CS(=O)(=O)n1cc2c(n1)CN([C@H]1CO[C@H](c3cc(F)ccc3F)[C@@H](N)C1)C2 [OMARIGLIPTIN]
Activity (Rattus norvegicus [1]): 293 mg/dL | Activity (Rattus norvegicus [2]): 105 mg/dL

CC1=C([N+](=O)[O-])C(c2ccc(F)c(F)c2)N=C(N)N1C(=O)CN1CCn2c(nnc2C(F)(F)F)C1 (stereo not drawn)
Activity (Rattus norvegicus [3]): Active | Activity [4]: Non-Toxic | Activity (Rattus norvegicus [5]): Active | Activity (Rattus norvegicus [6]): 113.91 mg/dL | Activity (Rattus norvegicus [7]): 137.56 mg/dL | Activity (Rattus norvegicus [8]): 103.88 mg/dL | Activity (Rattus norvegicus [9]): 46.34 mg/dL | Activity (Rattus norvegicus [10]): Active | Activity (Rattus norvegicus [11]): 149.76 mg/dL | Activity (Rattus norvegicus [12]): 115.89 mg/dL | Activity [13]: Non-Toxic | Activity (Rattus norvegicus [14]): 117.43 mg/dL | Activity (Rattus norvegicus [15]): 54.23 mg/dL | Activity (Rattus norvegicus [16]): Active | IC50 (Dipeptidyl peptidase 8): 1340 nM | Activity [17]: Non-Toxic | Activity (Rattus norvegicus [18]): 120.87 mg/dL | Activity [19]: Non-Toxic | Activity (Rattus norvegicus [20]): 104.01 mg/dL | Activity (Rattus norvegicus [21]): Active | Activity (Rattus norvegicus [22]): 115.67 mg/dL | Activity (Rattus norvegicus [23]): Active | Activity (Rattus norvegicus [24]): 107.56 mg/dL | Activity (Rattus norvegicus [25]): 109.45 mg/dL | Activity [26]: Non-Toxic | Activity (Rattus norvegicus [27]): 134.87 mg/dL | Activity (Rattus norvegicus [28]): Active | Activity (Rattus norvegicus [29]): 119.45 mg/dL | Activity (Rattus norvegicus [30]): 154.87 mg/dL | Activity (Rattus norvegicus [31]): 117.46 mg/dL | Activity [32]: Non-Toxic | Activity [33]: Non-Toxic | IC50 (Dipeptidyl peptidase 9): 1970 nM | Activity [34]: Non-Toxic | IC50 (Dipeptidyl peptidase 4): 85 nM | Activity [35]: Non-Toxic | Activity (Rattus norvegicus [36]): 111.1 mg/dL | Activity [37]: Non-Toxic

CC1=C(CC(=O)N2Cc3cn(S(C)(=O)=O)nc3C2)C(C)NC(=O)N1 (stereo not drawn)
IC50 (Dipeptidyl peptidase 4): 942 nM

CC1=C([N+](=O)[O-])C(c2ccc(F)c(F)c2)N=C(N)N1C(=O)CN1CCC[C@H]1C(=O)O (stereo partly drawn)
IC50 (Dipeptidyl peptidase 4): 2540 nM

CC1=C(C(=O)O)C(c2ccc(F)c(F)c2)N=C(N)N1C(=O)CN1CCCC1C#N (stereo not drawn)
IC50 (Dipeptidyl peptidase 4): 390 nM

CC1=C(CC(=O)N2CCn3c(nnc3C(F)(F)F)C2)C(C)NC(=O)N1 (stereo not drawn)
IC50 (Dipeptidyl peptidase 4): 2550 nM

CC1=C(CC(=O)N2CCCC(N)C2)C(C)NC(=O)N1 (stereo not drawn)
IC50 (Dipeptidyl peptidase 4): 1190 nM

CC1=C(CC(=O)N2Cc3cn(S(C)(=O)=O)nc3C2)C(c2ccc(F)c(F)c2)NC(=O)N1 (stereo not drawn)
IC50 (Dipeptidyl peptidase 4): 478 nM

Cc1nc(N2Cc3cn(S(C)(=O)=O)nc3C2)nc(C)c1CC(=O)O
IC50 (Dipeptidyl peptidase 4): 769 nM
